Experimental data taken from patent US20230066011A1, “PYRROLOPYRIMIDINE DERIVATIVE, AND PHARMACEUTICAL COMPOSITION FOR PREVENTING OR TREATING PROTEIN KINASE-RELATED DISEASE COMPRISING SAME AS ACTIVE INGREDIENT” (VORONOI CO., LTD., priority 2019, published 2023).

Assays:
LRRK2 (G2019S) = LRRK2 (G2019S) (Homo sapiens, UniProt Q5S007, G2019S); assay: LRRK2 G2019S enzyme inhibition, ADP-Glo kinase assay; type: biochemical; design: purchased SignalChem L10-12GG; conditions: ATP 25 μM
Procedure, shortened: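 IC50 derived from luminescent ADP-Glo readout against untreated solvent control, twelve final compound concentrations from 50 μM downward. Reaction: recombinant human LRRK2 G2019S enzyme, 25 μM ATP, substrate, pH 7.4 Tris buffer with MgCl2/BSA/DTT, 25° C. for 2 hours.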

human GST-DYRK1A = target: T1, human GST-DYRK1A (Homo sapiens, UniProt Q13627); assay: GST-DYRK1A enzyme inhibition, ADP-Glo kinase assay; type: biochemical; conditions: ATP 10 μM, GST-DYRK1A full length, read-out: DYRK1 IC50
T1 construct: purified human GST-DYRK1A (full length, Thermo Scientifics) enzyme; purchased Thermo Scientifics
Procedure, shortened: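 Full-length enzyme (10 ng) was incubated with 10 μM ATP and a specific substrate for 1 h at 25 °C in 40 mM Tris-HCl pH 7.4, 20 mM MgCl2, 0.5 mg/mL BSA, 50 μM DTT. Luminescence was read against a solvent control, and IC50 values were derived from 3 data sets.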

human GST-CLK1 = target: T2, human GST-CLK1 (Homo sapiens, UniProt P49759); assay: GST-CLK1 enzyme inhibition, ADP-Glo kinase assay; type: biochemical; conditions: ATP 10 μM, GST-CLK1 129-end
T2 construct: purified human GST-CLK1 (129-end, SignalChem) enzyme; purchased SignalChem
T2 sequence (P49759 129-484 limits assumed): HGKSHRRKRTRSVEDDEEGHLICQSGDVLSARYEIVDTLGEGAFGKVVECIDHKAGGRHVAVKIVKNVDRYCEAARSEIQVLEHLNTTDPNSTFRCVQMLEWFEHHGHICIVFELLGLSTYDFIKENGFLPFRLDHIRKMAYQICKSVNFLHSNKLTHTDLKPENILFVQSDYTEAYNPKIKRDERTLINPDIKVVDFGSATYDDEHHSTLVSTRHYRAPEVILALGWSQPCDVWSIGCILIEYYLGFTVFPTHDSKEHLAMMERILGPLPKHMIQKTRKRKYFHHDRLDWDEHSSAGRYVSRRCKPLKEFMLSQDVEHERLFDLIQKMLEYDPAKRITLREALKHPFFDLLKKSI
Procedure, shortened: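 ADP-Glo luminescence read-out, relative to untreated solvent control, gave IC50 (nM) from triplicate data sets. Reactions ran an hour at 25° C with 3 ng GST-CLK1 (residues 129-end), 10 μM ATP and specific substrate in Tris-HCl pH 7.4 buffer with MgCl2, BSA and DTT.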

LRRK2 = LRRK2 (Homo sapiens, UniProt Q5S007); assay: LRRK2 enzyme inhibition, ADP-Glo kinase assay; type: biochemical; design: purchased Invitrogen PR8604B; conditions: ATP 10 μM
LRRK2, sequence (Q5S007 970-2527 limits assumed): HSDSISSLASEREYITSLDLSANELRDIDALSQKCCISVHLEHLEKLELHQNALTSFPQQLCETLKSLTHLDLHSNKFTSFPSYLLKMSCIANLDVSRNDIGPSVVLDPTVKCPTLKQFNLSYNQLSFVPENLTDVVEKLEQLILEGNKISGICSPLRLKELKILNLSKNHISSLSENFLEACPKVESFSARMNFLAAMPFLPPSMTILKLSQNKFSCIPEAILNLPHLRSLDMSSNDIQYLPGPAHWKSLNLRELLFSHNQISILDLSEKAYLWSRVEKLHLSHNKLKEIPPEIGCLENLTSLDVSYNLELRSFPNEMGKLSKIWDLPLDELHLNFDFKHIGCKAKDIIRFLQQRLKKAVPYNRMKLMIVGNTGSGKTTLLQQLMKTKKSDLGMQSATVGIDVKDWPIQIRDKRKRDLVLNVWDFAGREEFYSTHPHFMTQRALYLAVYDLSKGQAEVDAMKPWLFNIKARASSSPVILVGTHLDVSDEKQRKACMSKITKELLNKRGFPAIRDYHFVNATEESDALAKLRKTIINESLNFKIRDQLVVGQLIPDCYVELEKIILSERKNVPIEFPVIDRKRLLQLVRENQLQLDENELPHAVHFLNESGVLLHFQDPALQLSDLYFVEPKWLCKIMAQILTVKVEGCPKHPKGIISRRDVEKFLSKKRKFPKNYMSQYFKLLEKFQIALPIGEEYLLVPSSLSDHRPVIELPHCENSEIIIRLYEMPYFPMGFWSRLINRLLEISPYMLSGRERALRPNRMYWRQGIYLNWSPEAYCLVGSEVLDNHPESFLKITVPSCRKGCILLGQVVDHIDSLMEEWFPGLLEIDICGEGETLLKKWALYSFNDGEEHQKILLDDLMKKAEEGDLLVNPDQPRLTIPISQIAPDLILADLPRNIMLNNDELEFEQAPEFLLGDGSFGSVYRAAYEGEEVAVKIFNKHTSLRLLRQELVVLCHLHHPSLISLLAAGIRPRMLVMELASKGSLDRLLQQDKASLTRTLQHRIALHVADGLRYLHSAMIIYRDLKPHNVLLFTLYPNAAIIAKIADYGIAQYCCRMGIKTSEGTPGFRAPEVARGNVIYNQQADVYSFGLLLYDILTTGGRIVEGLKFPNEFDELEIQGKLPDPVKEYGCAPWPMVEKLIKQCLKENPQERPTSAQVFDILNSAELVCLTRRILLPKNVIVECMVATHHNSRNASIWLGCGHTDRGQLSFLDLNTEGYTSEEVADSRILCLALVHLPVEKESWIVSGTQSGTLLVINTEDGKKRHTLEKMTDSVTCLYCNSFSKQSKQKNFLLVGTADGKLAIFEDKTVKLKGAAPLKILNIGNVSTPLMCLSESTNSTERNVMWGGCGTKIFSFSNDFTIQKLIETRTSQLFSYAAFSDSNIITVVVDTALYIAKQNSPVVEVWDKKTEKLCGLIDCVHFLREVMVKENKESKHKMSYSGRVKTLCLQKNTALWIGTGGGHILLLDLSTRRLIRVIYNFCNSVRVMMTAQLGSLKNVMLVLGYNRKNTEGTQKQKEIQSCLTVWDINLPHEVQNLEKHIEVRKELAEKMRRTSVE
Procedure, shortened: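 ADP-Glo luminescent read-out of ADP formed by purified human LRRK2 enzyme (25 ng), 10 μM ATP, 0.2 μg substrate, 25° C for 2 h, Tris-HCl pH 7.4 buffer with MgCl2, BSA, DTT. Inhibition versus untreated solvent control over twelve final concentrations (50 μM downward) gives IC50.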

MDA-MB-231 cell line = assay: Inhibition of proliferation of MDA-MB-231 cancer cells (Cell Titer-Glo); type: cell-based; conditions: Homo sapiens, 72 hours
Procedure, shortened: (§1)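 2,000 cells/well, DMEM or RPMI; 11-pt 3-fold dilution, final 10.000000–0.000169 μM; 72 h. CellTiter-Glo, 10 min RT, luminescence read; GI50 fitted.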

MDA-MB-468 cell line = assay: Inhibition of proliferation of MDA-MB-468 cancer cells (Cell Titer-Glo); type: cell-based; conditions: Homo sapiens, MDA-MB-468, 72 hours
Procedure, shortened: as §1

SHP-77 = assay: Inhibition of proliferation of SHP-77 cancer cells (Cell Titer-Glo); type: cell-based; conditions: Homo sapiens, SHP77, 72 hours
Procedure: To evaluate an inhibitory effect on the proliferation of cancer cells, each of an MDA-MB-231 cell line (Korean Cell Line Bank #30026) and an MDA-MB-468 cell line as triple-negative breast cancer cell lines, and SHP-77 (ATCC #CRL-2195) as a small-cell lung cancer cell line was cultured in DMEM (HyClone #SH30243) or an RPMI medium (HyClone #SH3027.01) to analyze a cell growth rate. More specifically, a cell line was plated on a 96-well flat bottom plate (Corning #3903) at a density of 2,000 cells/100 μL per well, and then treated with 11 concentrations of the Example compound, a solution of which was diluted 3-fold so that a final concentration of the compound was 10.000000, 3.333333, 1.111111, 0.370370, 0.123457, 0.041152, 0.013717, 0.004572, 0.001524, 0.000508, and 0.000169 μM. After 72 hours, each of the culture media was treated with 100 μL of Cell Titer-Glo (Promega G7573), and then cultured at room temperature for 10 minutes. Then, a degree of luminescence was measured using a microplate reader. A GI50 value was calculated from the measured degree of luminescence using Prism (Version 8.2 GraphPad) software.

LRRK2 (G2019S), sequence (Q5S007 970-2527 G2019S limits assumed): as the sequence (Q5S007 970-2527 limits assumed) above, with G1050S counted along it

Row | IC50 (LRRK2 (G2019S)) [nM] | IC50 (human GST-DYRK1A) [nM] | IC50 (human GST-CLK1) [nM] | IC50 (LRRK2) [nM] | GI50 (MDA-MB-231 cell line) [nM] | GI50 (MDA-MB-468 cell line) [nM] | GI50 (SHP-77) [nM] | SMILES
1 | 301 to 1000 | 301 to 1000 | 301 to 1000 | < 100 | < 50 | 101 to 300 | < 50 | COc1cc(S(=O)(=O)N2CCOCC2)ccc1Nc1nc(NC2CCCCC2)c2c(C#N)c[nH]c2n1 [Example 73]
2 | – | 301 to 1000 | 301 to 1000 | – | 51 to 100 | 101 to 300 | < 50 | COc1cc(S(=O)(=O)N2CCOCC2)ccc1Nc1nc(N[C@H]2CCOC2)c2c(C#N)c[nH]c2n1 [Example 75, (S)-2-((2-methoxy-4-(morpholinosulfonyl)phenyl)amino)-4-((tetrahydrofuran-3-yl)amino)-7H-pyrrolo[2,3-d]pyrimidine-5-carbonitrile]
3 | < 100 | 301 to 1000 | 301 to 1000 | 101 to 300 | 51 to 100 | 51 to 100 | 101 to 300 | COc1cc(S(=O)(=O)N2CCC(N3CCOCC3)CC2)ccc1Nc1nc(NC2CCCC2)c2c(C#N)c[nH]c2n1 [Example 90, 4-(cyclopentylamino)-2-((2-methoxy-4-((4-morpholinopiperidin-1-yl)sulfonyl)phenyl)amino)-7H-pyrrolo[2,3-d]pyrimidine-5-carbonitrile]
4 | < 100 | 301 to 1000 | 301 to 1000 | < 100 | 51 to 100 | 51 to 100 | < 50 | COc1cc(S(=O)(=O)N2CCC(N3CCOCC3)CC2)ccc1Nc1nc(NC2CCCCC2)c2c(C#N)c[nH]c2n1 [Example 91, 4-(cyclohexylamino)-2-((2-methoxy-4-((4-morpholinopiperidin-1-yl)sulfonyl)phenyl)amino)-7H-pyrrolo[2,3-d]pyrimidine-5-carbonitrile]
5 | < 100 | 301 to 1000 | 301 to 1000 | < 100 | < 50 | – | < 50 | CCCCNc1nc(Nc2ccc(S(=O)(=O)N3CCC(N4CCOCC4)CC3)cc2OC)nc2[nH]cc(C#N)c12 [Example 97, 4-(butylamino)-2-((2-methoxy-4-((4-morpholinopiperidin-1-yl)sulfonyl)phenyl)amino)-7H-pyrrolo[2,3-d]pyrimidine-5-carbonitrile]
6 | 301 to 1000 | 301 to 1000 | 301 to 1000 | < 100 | 301 to 1000 | – | 51 to 100 | CNc1nc(Nc2ccc(S(=O)(=O)N3CCOCC3)cc2OC)nc2[nH]cc(C(F)(F)F)c12 [Example 160, N^2-(2-methoxy-4-(morpholinosulfonyl)phenyl)-N^4-methyl-5-(trifluoromethyl)-7H-pyrrolo[2,3-d]pyrimidine-2,4-diamine]
7 | 301 to 1000 | 301 to 1000 | 301 to 1000 | < 100 | 301 to 1000 | – | 51 to 100 | COc1cc(S(=O)(=O)N2CCOCC2)ccc1Nc1nc(NC(C)C)c2c(C(F)(F)F)c[nH]c2n1 [Example 164, N^4-isopropyl-N^2-(2-methoxy-4-(morpholinosulfonyl)phenyl)-5-(trifluoromethyl)-7H-pyrrolo[2,3-d]pyrimidine-2,4-diamine]
8 | 101 to 300 | 301 to 1000 | 301 to 1000 | < 100 | < 50 | – | 51 to 100 | COc1cc(S(=O)(=O)N2CCC(N3CCOCC3)CC2)ccc1Nc1nc(NC(C)C)c2c(C(F)(F)F)c[nH]c2n1 [Example 165, N^4-isopropyl-N^2-(2-methoxy-4-((4-morpholinopiperidin-1-yl)sulfonyl)phenyl)-5-(trifluoromethyl)-7H-pyrrolo[2,3-d]pyrimidine-2,4-diamine]
9 | < 100 | 101 to 300 | < 100 | < 100 | 301 to 1000 | – | 101 to 300 | COCCNc1nc(Nc2ccc(S(=O)(=O)N3CCC(N4CCOCC4)CC3)cc2OC)nc2[nH]cc(C(F)(F)F)c12 [Example 170, N^2-(2-methoxy-4-((4-morpholinopiperidin-1-yl)sulfonyl)phenyl)-N^4-(2-methoxyethyl)-5-(trifluoromethyl)-7H-pyrrolo[2,3-d]pyrimidine-2,4-diamine]
10 | 301 to 1000 | 301 to 1000 | 301 to 1000 | 301 to 1000 | 301 to 1000 | – | 101 to 300 | CC[C@@H](C)Nc1nc(Nc2ccc(S(=O)(=O)N3CCC(N4CCOCC4)CC3)cc2OC)nc2[nH]cc(C(F)(F)F)c12 [Example 172, (R)-N^4-(sec-butyl)-N^2-(2-methoxy-4-((4-morpholinopiperidin-1-yl)sulfonyl)phenyl)-5-(trifluoromethyl)-7H-pyrrolo[2,3-d]pyrimidine-2,4-diamine]
11 | 301 to 1000 | 301 to 1000 | 301 to 1000 | 301 to 1000 | 301 to 1000 | – | 101 to 300 | COCC(C)(C)Nc1nc(Nc2ccc(S(=O)(=O)N3CCOCC3)cc2OC)nc2[nH]cc(C(F)(F)F)c12 [Example 175, N^4-(1-methoxy-2-methylpropan-2-yl)-N^2-(2-methoxy-4-(morpholinosulfonyl)phenyl)-5-(trifluoromethyl)-7H-pyrrolo[2,3-d]pyrimidine-2,4-diamine]
12 | 101 to 300 | 301 to 1000 | 301 to 1000 | < 100 | 301 to 1000 | – | 301 to 1000 | COc1cc(S(=O)(=O)N2CCC(N3CCOCC3)CC2)ccc1Nc1nc(NC2CCC2)c2c(C(F)(F)F)c[nH]c2n1 [Example 183, N^4-cyclobutyl-N^2-(2-methoxy-4-((4-morpholinopiperidin-1-yl)sulfonyl)phenyl)-5-(trifluoromethyl)-7H-pyrrolo[2,3-d]pyrimidine-2,4-diamine]
13 | 301 to 1000 | 301 to 1000 | 301 to 1000 | 101 to 300 | 301 to 1000 | – | 101 to 300 | CCNc1nc(Nc2ccc(S(=O)(=O)N3CCOCC3)cc2OC)nc2[nH]cc(C(F)(F)F)c12 [Example 191, N^4-ethyl-N^2-(2-methoxy-4-(morpholinosulfonyl)phenyl)-5-(trifluoromethyl)-7H-pyrrolo[2,3-d]pyrimidine-2,4-diamine]
14 | 101 to 300 | 301 to 1000 | 301 to 1000 | < 100 | 301 to 1000 | – | 301 to 1000 | COc1cc(S(=O)(=O)N2CCC(N3CCOCC3)CC2)ccc1Nc1nc(NCC2CCC2)c2c(C(F)(F)F)c[nH]c2n1 [Example 197, N^4-(cyclobutylmethyl)-N^2-(2-methoxy-4-((4-morpholinopiperidin-1-yl)sulfonyl)phenyl)-5-(trifluoromethyl)-7H-pyrrolo[2,3-d]pyrimidine-2,4-diamine]
15 | 101 to 300 | 301 to 1000 | 301 to 1000 | < 100 | 301 to 1000 | – | 301 to 1000 | CCCCNc1nc(Nc2ccc(S(=O)(=O)N3CCC(N4CCOCC4)CC3)cc2OC)nc2[nH]cc(C(F)(F)F)c12 [Example 202, N^4-butyl-N^2-(2-methoxy-4-((4-morpholinopiperidin-1-yl)sulfonyl)phenyl)-5-(trifluoromethyl)-7H-pyrrolo[2,3-d]pyrimidine-2,4-diamine]
